According to the supplement of paper PMC11208160:

Test: recombinant barcode read abundance after kanamycin selection (control-corrected) (log10(CPM+1)); higher = more efficient recombination; sequences stand for … in AGTGCAGAGAAAATCGGCCAGTTTTCTCTGCCTGCAGTCCGCATGCCGT…AGATTTATGCAGCGGACTGCCTTTCTCCCAAAGTGATAAACCGGACAGTATCATGGACCGGTTTTCCCGGTAATCCGTATTTGCAAGGTTGGTTTCACT; site = the 11-nt target
Method in brief: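 Two replicates per condition were plated: chloramphenicol/ampicillin LB agar for the control, and chloramphenicol/ampicillin/kanamycin with 0.1 mM IPTG for selection. The pooled E. coli screen behind them paired targets with IS621 bridge RNA target-binding loops. Recombination efficiency is expressed from averaged, control-corrected barcode counts per million at recombinant junctions, as log10(CPM+1).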
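Note: IS621 recombinase and bridge RNA in Escherichia coli cells.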

Sequence	recombinant barcode read abundance (log10)
TAAACAGCTTGGGTTCTAACCTGTTGCCT (site TATACAGCTAG)	0.0779
TAAAGAGCTTGGGTTCTAACCTGTTGCGG (site TAAAGAGCTCC)	1.57
TAAAGAGCTTGGGTTCTAACCTGTTGCGG (site TACAGAGCTCC)	0.153
TAAAGAGCTTGGGTTCTAACCTGTTGCGG (site TAGAGAGCTCC)	0.109
TAAAGAGCTTGGGTTCTAACCTGTTGCGG (site TATAGAGCTCC)	0.236
TAACCCACTTGGGTTCTAACCTGTTGCCT (site TAACCCACTAG)	1.1
TAACCCACTTGGGTTCTAACCTGTTGCCT (site TTACGCACTAG)	0.334
TAACCTACTTGGGTTCTAACCTGTTGCAT (site TAACATACTAT)	0.0358
TAACCTACTTGGGTTCTAACCTGTTGCAT (site TAACCTACTAT)	0.802
TAACCTACTTGGGTTCTAACCTGTTGCAT (site TAACGTACTAT)	0.169
TAACCTACTTGGGTTCTAACCTGTTGCAT (site TAACTTACTAT)	0.0519
TAACGATCTTGGGTTCTAACCTGTTGCAT (site TAACGATCTAT)	0.497
TAACGATCTTGGGTTCTAACCTGTTGCAT (site TAACGGTCTAA)	0.0405
TAACGGTCTTGGGTTCTAACCTGTTGCTT (site TAACGATCTAT)	0.44
TAACGGTCTTGGGTTCTAACCTGTTGCTT (site TAACGGTCTAA)	1.09
TAACGTACTTGGGTTCTAACCTGTTGCGG (site TAACGTACTCC)	1.41

Sequence	recombinant barcode read abundance (log10)
TAACGTACTTGGGTTCTAACCTGTTGCGG (site TAACGTCCTAC)	0.113
TAACTCTCTTGGGTTCTAACCTGTTGCCT (site TAACTCTCTAG)	1.05
TAACTCTCTTGGGTTCTAACCTGTTGCCT (site TCACTCTCTAG)	0.0372
TAACTCTCTTGGGTTCTAACCTGTTGCCT (site TGACTCTCTAG)	0.0157
TAACTCTCTTGGGTTCTAACCTGTTGCCT (site TTACTCTCTAG)	0.145
TAACTGTCTTGGGTTCTAACCTGTTGCTT (site CCGTCTACTTG)	0.121
TAACTGTCTTGGGTTCTAACCTGTTGCTT (site TAACTGTCTAA)	1.74
TAACTTACTTGGGTTCTAACCTGTTGCCT (site TAACTTACTAG)	0.185
TAACTTACTTGGGTTCTAACCTGTTGCCT (site TAGCTTACTCG)	0.0408
TAAGCCTCTTGGGTTCTAACCTGTTGCTG (site TAAGCCTCTCA)	2.54
TAAGCCTCTTGGGTTCTAACCTGTTGCTG (site TAAGCTACTCA)	0
TAAGGTCCTTGGGTTCTAACCTGTTGCTA (site GGAGGTCCTTA)	0.0326
TAAGGTCCTTGGGTTCTAACCTGTTGCTA (site TAAGGTCCTTA)	1.81
TAATCGGCTTGGGTTCTAACCTGTTGCCT (site TAATCGACTAG)	0.0571
TAATCGGCTTGGGTTCTAACCTGTTGCCT (site TAATCGCCTAG)	0.0352
TAATCGGCTTGGGTTCTAACCTGTTGCCT (site TAATCGGCTAG)	0.453
